Publication PMC4800460 (Journal of Biomolecular Screening, 2015)

Target: NT647-MEK1 (MEK1 residues 37–383) (Homo sapiens, UniProt Q02750)
Test: Automated microscale thermophoresis
Format: binding

Sequence of NT647-MEK1 (MEK1 residues 37–383) (Q02750 37-383): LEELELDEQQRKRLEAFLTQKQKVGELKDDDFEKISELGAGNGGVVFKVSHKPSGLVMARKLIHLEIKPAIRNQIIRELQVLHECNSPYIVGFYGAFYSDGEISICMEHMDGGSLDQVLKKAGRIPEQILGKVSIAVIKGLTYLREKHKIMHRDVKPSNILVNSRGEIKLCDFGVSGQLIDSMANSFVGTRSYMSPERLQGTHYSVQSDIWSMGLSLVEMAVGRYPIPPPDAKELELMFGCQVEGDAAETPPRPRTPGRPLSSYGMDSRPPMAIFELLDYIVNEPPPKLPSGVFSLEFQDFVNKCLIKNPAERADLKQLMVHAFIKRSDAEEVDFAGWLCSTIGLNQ

Kd (Kd of ATP in the absence of MgCl2, without MgCl2): 140 µM
Kd (Kd of ATP in the presence of MgCl2, MST buffer with 10 mM MgCl2): 4.5 µM
SMILES: Nc1ncnc2c1ncn2[C@@H]1O[C@H](COP(=O)(O)OP(=O)(O)OP(=O)(O)O)[C@@H](O)[C@H]1O [ATP, adenosine triphosphate]
